From patent publication US20070167488A1, “Novel therapeutic use” (Leo Pharma A/S, priority 2003, published 2007)

Test system: IL-2
Test: Inhibition of IL-2 production in phytohemagglutinin-activated human PBMCs (sandwich ELISA)
Type: cell-based
Settings: Homo sapiens, PBMC, 46 h, approximately 46 hours, read-out: IL-2 pIC50 (converted)
Protocol: Peripheral blood mononuclear cells (PBMCs) were isolated from human blood. The lymphocytes, a fraction of the PBMCs, were activated to secrete IL-2 using the polyclonal mitogen phytohemagglutinin. The test compounds were added in concentrations from 10^−5 to 10^−10, and the cells (10^6/ml) were incubated in microtiter wells at 37° C. for approximately 46 hours.
After 46 hours the cells were centrifuged down for 25 minutes at 1000×g and the supernatants were transferred to transferred to microtiter wells precoated with a monoclonal antibody against human IL-2. The IL-2 concentration in the supernatants was determined by a sandwich ELISA. Microtiter plates were coated (1 μg/ml) with a monoclonal antibody (R&D, UK) against human IL-2, washed 4 times, blocked with 1% casein buffer for 2 hours and washed 2 times. 100 μl sample was added to each well and incubated overnight. All samples were tested in triplicate. 100 μl IL-2 standards (R&D, UK) at a concentration range of 10000-0 pg/ml were tested in triplicate. After incubation the plates were washed and incubated with biotinylated polyclonal secondary antibody against human IL-2 (R&D, UK) for 45 minutes and thereafter washed 4 times. 100 μl enzyme conjugate, horseradish peroxidase conjugated streptavidin diluted 1:4000 (Zymed, USA), was added to all wells and incubated for 30 minutes. 100 μl OPD substrate (KEM EN TEC-DK) was added and the enzyme/substrate reaction stopped after 10 minutes at room temperature with 50 μl 1 M H2SO4. The colour development (optical density—OD) was determined at 492 nm on an ELISA reader and the background OD at 620 nm subtracted).

SMILES | IC50 [nM]
O=C1Nc2ccccc2/C1=C/c1ccc(Cl)c(Cl)c1 | 20
Cc1ccc(/C=C2\C(=O)Nc3ccccc32)cc1C | 50.1
O=C1Nc2ccccc2/C1=C\c1ccc(Cl)c(Cl)c1 | 1
Cc1cccc(COc2ccc(/C=C3/C(=O)Nc4ccccc43)cc2)n1 | 398
COc1ccc(OC)c(/C=C2/C(=O)Nc3ccc(Cl)cc32)c1 | 6.31
COc1ncc(/C=C2/C(=O)Nc3ccccc32)c(OC)n1 | 6.31
COc1ccc(OC)c(/C=C2/C(=O)Nc3ccc(Br)cc32)c1 | 100
COc1ccc(OC)c(/C=C2/C(=O)Nc3c(F)cc(F)cc32)c1 | 10
COc1ccc(OC)c(/C=C2/C(=O)Nc3c(Br)cccc32)c1 | 10
COc1ccc(OC)c(/C=C2/C(=O)Nc3cc(F)ccc32)c1 | 10
COc1ccc(OC)c(/C=C2/C(=O)Nc3ccc(C(F)(F)F)cc32)c1 | 631
COc1ccc(OC)c(/C=C2/C(=O)Nc3ccc(O)cc32)c1 | 200
O=C1Nc2ccc(Cl)cc2/C1=C/c1c[nH]c2ccccc12 | 10
COc1ccc(OC)c(/C=C2/C(=O)Nc3ccc(F)c(F)c32)c1 | 20
O=C1Nc2ccccc2/C1=C\c1cc(Cl)cc(Cl)c1O | 398
O=C1Nc2ccccc2/C1=C\c1cc(Br)co1 | 31.6
O=C1Nc2c(F)cc(F)cc2/C1=C/c1c[nH]c2ccccc12 | 2
O=C1Nc2ccc(Br)cc2/C1=C/c1c[nH]c2ccccc12 | 2
COc1cc(OC)c(OC)cc1/C=C1/C(=O)Nc2ccccc21 | 2
O=C1Nc2cc(F)ccc2/C1=C/c1c[nH]c2ccccc12 | 3.16

SMILES | IC50 [nM]
O=C1Nc2cc(Br)ccc2/C1=C/c1c[nH]c2ccccc12 | 3.16
O=C1Nc2ccccc2/C1=C\c1c[nH]c2c(F)c(F)c(F)c(F)c12 | 2
Cc1cc(/C=C2/C(=O)Nc3ccccc32)sc1C | 100
Cc1cc(/C=C2/C(=O)Nc3ccccc32)oc1C | 3.98
O=C1Nc2c(Br)cccc2/C1=C/c1c[nH]c2ccccc12 | 0.2
O=C1Nc2ccccc2/C1=C\c1cc(OC(F)(F)F)ccc1O | 63.1
Cc1cc(C[n+]2ccccc2)[nH]c1/C=C1\C(=O)Nc2ccccc21 | 6.31
N#Cc1cccc2c1NC(=O)/C2=C\c1c[nH]c2ccccc12 | 1
N#Cc1ccc2c(c1)/C(=C/c1c[nH]c3ccccc13)C(=O)N2 | 1
O=C1Nc2c(F)cccc2/C1=C/c1c[nH]c2ccccc12 | 0.316
Cc1[nH]c(/C=C2\C(=O)Nc3ccccc32)c(C)c1Cl | 1
O=C1Nc2cc(C(F)(F)F)ccc2/C1=C/c1c[nH]c2ccccc12 | 20
O=C1Nc2ccc(F)c(F)c2/C1=C/c1c[nH]c2ccccc12 | 3.98
COc1ccc2c(c1)/C(=C/c1c[nH]c3ccccc13)C(=O)N2 | 31.6
O=C1Nc2cc(Cl)ccc2/C1=C/c1c[nH]c2ccccc12 | 63.1
COc1ccc(OC)c(/C=C2/C(=O)Nc3c(C#N)cccc32)c1 | 31.6
COc1ccc(OC)c(/C=C2/C(=O)Nc3cc(S(C)(=O)=O)ccc32)c1 | 794
COc1ccc(OC)c(/C=C2/C(=O)Nc3cc(C(F)(F)F)ccc32)c1 | 10
COc1ccc(OC)c(/C=C2/C(=O)Nc3c(F)cccc32)c1 | 501
COc1ccc(OC)c(/C=C2/C(=O)Nc3cc(Cl)ccc32)c1 | 31.6

SMILES | IC50 [nM]
CCN(CC)CCNC(=O)c1cc(C)c(/C=C2\C(=O)Nc3ccccc32)[nH]1 | 39.8
Cc1cc(C(=O)NCCCC2CCN(C=O)CC2)[nH]c1/C=C1\C(=O)Nc2ccccc21 | 50.1
Cc1cc(C(=O)NCCCCCCO)[nH]c1/C=C1\C(=O)Nc2ccccc21 | 100
COC(=O)CCCNC(=O)c1cc(C)c(/C=C2\C(=O)Nc3ccccc32)[nH]1 | 50.1
Cc1cc(C)cc(-c2ccc(N(C)CCN(C)C)c(/C=C3\C(=O)Nc4ccccc43)c2)c1 | 63.1
Cc1cc(C(=O)NCC2(c3ccc(Cl)cc3)CC2)[nH]c1/C=C1\C(=O)Nc2ccccc21 | 63.1
Cc1cc(C(=O)NCC2CCCO2)[nH]c1/C=C1\C(=O)Nc2ccccc21 (stereo not shown) | 20
CCOC(=O)CCCCCNC(=O)c1cc(C)c(/C=C2\C(=O)Nc3ccccc32)[nH]1 | 79.4
CCOC(=O)CCCNC(=O)c1cc(C)c(/C=C2\C(=O)Nc3ccccc32)[nH]1 | 39.8
Cc1cc(C(=O)NCCCCCO)[nH]c1/C=C1\C(=O)Nc2ccccc21 | 63.1
Cc1cc(C(=O)NCC2CCCCC2)[nH]c1/C=C1\C(=O)Nc2ccccc21 | 31.6
Cc1cc(C(=O)OCc2ccncc2)[nH]c1/C=C1\C(=O)Nc2ccccc21 | 31.6
Cc1cc(C)c(/C(C(=O)OCc2ccccc2)=C2\C(=O)Nc3ccccc32)[nH]1 | 20
COc1ccc(OC)c(/C=C2/C(=O)N(O)c3ccccc32)c1 | 10
CC(C)(C)OC(=O)N1C(=O)/C(=C\c2c[nH]c3ccccc23)c2ccccc21 | 1
Cc1[nH]c(/C=C2\C(=O)N(O)c3ccccc32)c(C)c1Br | 1
CON1C(=O)/C(=C\c2[nH]c(C)cc2C)c2ccccc21 | 10
COc1ccc(OC)c(/C=C2\C(=O)N(OC)c3ccccc32)c1 | 20

More lines, now with the values ahead:

IC50 [nM] | SMILES
631 | Cc1ccc(/C=C2\C(=O)Nc3ccccc32)c(C)c1
79.4 | O=C1Nc2ccccc2/C1=C/c1ccc(Cl)cc1
1 | Cc1ccc(/C=C2/C(=O)Nc3ccccc32)c(C)c1
2 | COc1ccc(/C=C2/C(=O)Nc3ccccc32)c(OC)c1
631 | O=C1Nc2ccccc2/C1=C/c1ccc2ccccc2c1
20 | O=C1Nc2ccccc2/C1=C/c1cccc([N+](=O)[O-])c1
63.1 | O=C1Nc2ccccc2/C1=C/c1ccccc1F
631 | Cc1cccc(/C=C2\C(=O)Nc3ccccc32)c1
200 | O=C1Nc2ccccc2/C1=C\c1cccc(F)c1
10 | O=C1Nc2ccccc2/C1=C\c1cccc(Cl)c1
1 | O=C1Nc2ccccc2/C1=C\c1ccc(Cl)cc1Cl
10 | O=C1Nc2ccccc2/C1=C\c1cccc(Br)c1
316 | O=C1Nc2ccccc2/C1=C\c1ccc(O)cc1O
100 | COc1cc(/C=C2/C(=O)Nc3ccccc32)ccc1O
31.6 | O=C1Nc2ccccc2/C1=C\c1cc(-c2ccccc2)cs1
200 | CCn1c2ccccc2c2cc(/C=C3/C(=O)Nc4ccccc43)ccc21
631 | CCOc1ccc(OCC)c(/C=C2/C(=O)Nc3ccccc32)c1
100 | O=C1Nc2ccccc2/C1=C\c1cc(O)ccc1O
20 | Cc1ccc2[nH]cc(/C=C3/C(=O)Nc4ccccc43)c2c1
316 | COc1ccc(O)c(/C=C2/C(=O)Nc3ccccc32)c1
79.4 | O=C1Nc2ccc(O)cc2/C1=C/c1c[nH]c2ccccc12
10 | O=C1Nc2ccccc2/C1=C\c1cn(Cc2cnc(Cl)s2)c2ccccc12
1 | O=C1Nc2ccccc2/C1=C/c1c[nH]c2cc(F)ccc12
0.1 | Cc1ccc2c(/C=C3/C(=O)Nc4ccccc43)c[nH]c2c1

IC50 [nM] | SMILES
3.98 | Cc1cccc2c(/C=C3/C(=O)Nc4ccccc43)c[nH]c12
100 | Cn1c(/C=C2/C(=O)Nc3ccccc32)cc2ccccc21
794 | COc1cc(/C=C2/C(=O)Nc3ccccc32)c(OCc2ccccc2)cc1OC
100 | O=C1Nc2ccccc2/C1=C/c1c[nH]c2ccc(F)cc12
3.16 | O=C1Nc2ccccc2/C1=C\c1cc(Cl)ccc1Cl
10 | COc1ccc2[nH]cc(/C=C3\C(=O)Nc4ccccc43)c2c1
10 | O=C1Nc2ccccc2/C1=C/c1c[nH]c2ccc(OCc3ccccc3)cc12
0.2 | COc1ccc2c(/C=C3\C(=O)Nc4ccccc43)c[nH]c2c1
6.31 | COc1ccc2c(/C=C3\C(=O)Nc4ccccc43)cn(C)c2c1
100 | O=C1Nc2ccccc2/C1=C/c1c[nH]c2cccc(OCc3ccccc3)c12
39.8 | O=C1Nc2ccccc2/C1=C\c1cc(Br)ccc1Br
10 | COc1ccc(Br)cc1/C=C1/C(=O)Nc2ccccc21
63.1 | COc1ccc(F)c(/C=C2/C(=O)Nc3ccccc32)c1
200 | O=C1Nc2ccccc2/C1=C/c1ccc(Cl)cc1Cl
200 | CCOC(=O)CCn1cc(/C=C2\C(=O)Nc3ccccc32)c2ccccc21
200 | COc1ccc(O)c(/C=C2\C(=O)Nc3ccccc32)c1
200 | O=C(O)CCn1cc(/C=C2\C(=O)Nc3ccccc32)c2ccccc21
50.1 | Cc1cc(C(=O)NCCCc2ccccc2)[nH]c1/C=C1\C(=O)Nc2ccccc21
39.8 | Cc1cc(C(=O)NCCc2c[nH]c3ccccc23)[nH]c1/C=C1\C(=O)Nc2ccccc21
100 | Cc1cc(C(=O)NCCCCc2ccccc2)[nH]c1/C=C1\C(=O)Nc2ccccc21
6.31 | O=C1Nc2ccccc2/C1=C\c1ccc2cc[nH]c2c1
794 | Cn1cc(/C(C(=O)O)=C2\C(=O)Nc3ccccc32)c2ccccc21
79.4 | CN1CCN(c2c(/C=C3\C(=O)Nc4ccccc43)c3ccccc3n2C)CC1
20 | Cc1cc(C(=O)OCc2ccccc2)[nH]c1/C=C1\C(=O)Nc2ccccc21
